Tested on: 3E7 Fab
Assay: Dissociation of [125I]Fab from fusion phage clones
Assay type: binding, mouse
Parameters: key to Dissociation t1/2 (minutes): **: indicates that initial binding was not detected
Settings: [125I]Fab dissociating from the phage clone bearing the peptide; 4° C; excess free YGGFL added
Method: An assay employing the anti-phage antisera was developed to determine the rate of dissociation of [^125 I]Fab from individual phage isolates. Individual fusion phase isolates were amplified in a 5 ml liquid culture of E. coli K91 cells and phage particles were isolated and quantitated as described above. In 1 ml microtiter minitubes, 25 μl of TBS containing approximately 2×10^9 infectious phage particles were incubated with […] of TBS/0.1% BSA containing 40,000 cpm of [^125 I]Fab for 10 minutes. Anti-phage antisera (25 μl of 1:1000 dilution in PBS/0.1%BSA) and staph A particles coated with goat anti-mouse IgG (25 μl of Tachisorb diluted eight-fold in TBS/0.1% BSA) were then added. Dissociation was initiated after 2 hours further incubation at 4° C. […] Filter bound radioactivity was determined by gamma counting. […] The time corresponding to a 50% reduction of initially bound [^125 I]Fab was determined by linear regression of a semi-logarithmic plot of amount bound vs. time.

## YGGLVR: hexapeptide isolated with 50 pM Fab
  Dissociation t1/2: 0.50 min

## YGYWSL: hexapeptide isolated with 50 pM Fab
  Dissociation t1/2: 15.6 min

## YGAFGG: hexapeptide isolated with 50 pM Fab
  Dissociation t1/2: 5.0 min

## YGFWSN: hexapeptide isolated with 50 pM Fab
  Dissociation t1/2: 7.4 min

## YGGFSP: hexapeptide isolated with 50 pM Fab
  Dissociation t1/2 (minutes): **

## YGGLRH: hexapeptide isolated with 50 pM Fab
  Dissociation t1/2 (minutes): **

## YGVFSR: hexapeptide isolated with 50 pM Fab
  Dissociation t1/2: 2.8 min

## YGSFSL: hexapeptide isolated with 50 pM Fab
  Dissociation t1/2: 0.43 min

## YGGFLT: hexapeptide isolated with 50 pM Fab
  Dissociation t1/2: 17.9 min

## YGGLSM: hexapeptide isolated with 50 pM Fab
  Dissociation t1/2: 0.96 min

## YGAFFQ: hexapeptide isolated with 50 pM Fab
  Dissociation t1/2: 13.4 min

## YGRFFH: hexapeptide isolated with 50 pM Fab
  Dissociation t1/2 (minutes): **

## YGSFMA: hexapeptide isolated with 50 pM Fab
  Dissociation t1/2 (minutes): **

— patent publication US5432018A, “Peptide library and screening systems” (Affymax Technologies N.V., priority 1991, dated 1995)
